Experiments:
P-gp and MMP9 = assay: Immunoprecipitation/IFA of P-gp with MMP9 in HBMVEC; assay type: cell-based, human; conditions: 1 μM for 5 minutes
Excerpt: FIG. 8A is a schematic diagram of the experimental procedure for analysis of Lexiscan®'s effect on P-gp solubility and excretion in primary brain endothelial cells (“HBMVEC”). FIGS. 8B-8C are western blots and graphs summarizing the experimental result of each western blot. FIGS. 8B-8C show the analysis of P-gp expression of HBMVEC upon activation with Lexiscan® at different time points after lysis with RIPA buffer (FIG. 8B) or CSK buffer to measure P-gp levels in the cytoskeletal fraction (FIG. 8C). Band intensity was normalized to GAPDH and graphed. […] Band intensity was normalized using GAPDH and plotted. FIG. 8E is a western blot of secreted P-gp in HBMVEC upon activation with Lexiscan® in absence or presence of an MMP9 inhibitor: both short and long exposures of western blot from MMP9 inhibitor-treated samples are shown. Band intensity was plotted as a graph. FIG. 8F is a western blot showing the results of an Immunoprecipitation assay of MMP9 with lysate from HBMVEC treated with vehicle (control) or 1 μM of Lexiscan® for 5 minutes. P-gp was pulled down using anti-P-gp antibody and immunoblotted with an anti-MMP9 antibody. […] FIG. 8H is a graph summarizing the intensity of fluorescence of MMP9 from FIG. 8G. Fluorescent intensity of MMP9 was quantified and plotted as graph (n=20). **P<0.01 (2-tailed Student's t test, 1 representative result of 3 different experiments). […]

P-gp [1] = assay: P-gp solubility and secretion in HBMVEC (RIPA lysate, CSK cytoskeletal fraction, media); assay type: cell-based, human
Excerpt: FIG. 8A is a schematic diagram of the experimental procedure for analysis of Lexiscan®'s effect on P-gp solubility and excretion in primary brain endothelial cells (“HBMVEC”). FIGS. 8B-8C are western blots and graphs summarizing the experimental result of each western blot. FIGS. 8B-8C show the analysis of P-gp expression of HBMVEC upon activation with Lexiscan® at different time points after lysis with RIPA buffer (FIG. 8B) or CSK buffer to measure P-gp levels in the cytoskeletal fraction (FIG. 8C). Band intensity was normalized to GAPDH and graphed. […] Band intensity was normalized using GAPDH and plotted. FIG. 8E is a western blot of secreted P-gp in HBMVEC upon activation with Lexiscan® in absence or presence of an MMP9 inhibitor: both short and long exposures of western blot from MMP9 inhibitor-treated samples are shown. Band intensity was plotted as a graph. FIG. 8F is a western blot showing the results of an Immunoprecipitation assay of MMP9 with lysate from HBMVEC treated with vehicle (control) or 1 μM of Lexiscan® for 5 minutes. P-gp was pulled down using anti-P-gp antibody and immunoblotted with an anti-MMP9 antibody. FIG. 8G is an immunofluorescence microscopy image of MMP9 on HBMVEC treated with control (top panel) or 1 μM of Lexiscan® (middle panel) for 5 minutes. Cells were stained with P-gp (green) and MMP9 (red). Nucleus was counterstained with DAPI (blue). […] Cell-surface colocalization of P-gp and MMP9 is indicated by arrows. The scale bars indicates 25 μm (upper and middle panels); 5 μm (bottom panels). FIG. 8H is a graph summarizing the intensity of fluorescence of MMP9 from FIG. 8G. Fluorescent intensity of MMP9 was quantified and plotted as graph (n=20). **P<0.01 (2-tailed Student's t test, 1 representative result of 3 different experiments).
HCMEC-D3 and HBMVEC cells were plated in 12-well plates and were grown until they reached 100% confluency. […] The intensity of band was analyzed with densitometric analysis and plotted as a graph for analysis of time-course effect of AR signaling on P-gp expression.

P-gp [2] = assay: Ubiquitination of P-gp in primary human brain endothelial cells (immunoprecipitation, IFA); assay type: cell-based; conditions: 15 minutes
Experimental: FIG. 10A is a western blot showing immunoprecipitation analysis of ubiquitination of P-gp in human primary brain endothelial cells upon activation with Lexiscan® for 15 minutes. P-gp was pulled down with an anti-P-gp antibody and immunoblotted with an anti-ubiquitin antibody. FIG. 10B are immunofluorescence microscopy images depicting ubiquitination of P-gp in human primary brain endothelial cells upon activation with Lexiscan® for 15 minutes. Cells were fixed, permeabilized, and stained with an anti-P-gp (green) and anti-ubiquitin (red) antibody. Nucleus was counterstained with DAPI (blue). The scale bar indicates 25 μm. FIG. 10C is a schematic diagram depicting the mechanism of P-gp down-regulation by Lexiscan®. Upon activation of A2A AR, P-gp is cleaved by MMP9 and secreted to the extracellular space (a), or ubiquitinated and digested by proteasome (b), or can relocate from the soluble fraction to the insoluble fraction (c). These mechanisms may occur independently or in combination.
4 G Sepharose beads were purchased from Invitrogen and incubated with human P-gp antibody (BD Biosciences) overnight at 4° C. using a rocking shaker. Beads were washed twice using lysis buffer containing protease inhibitor, and lysates from primary brain endothelial cells were incubated overnight at 4° C. using a rocking shaker. […]

[3] = cited from earlier work
P-gp [4] = target: T1, P-gp (Homo sapiens, UniProt P08183); assay: Rho123 uptake assay in primary human brain endothelial cells (HBMVEC); assay type: cell-based; conditions: agonist 1 μM, Rho123 2.5 μM
T1 construct: in human primary brain endothelial cells, HBMVEC, high P-gp expression was observed; host or cells: HBMVEC (primary human brain endothelial cells)
T1 sequence (P08183 whole entry): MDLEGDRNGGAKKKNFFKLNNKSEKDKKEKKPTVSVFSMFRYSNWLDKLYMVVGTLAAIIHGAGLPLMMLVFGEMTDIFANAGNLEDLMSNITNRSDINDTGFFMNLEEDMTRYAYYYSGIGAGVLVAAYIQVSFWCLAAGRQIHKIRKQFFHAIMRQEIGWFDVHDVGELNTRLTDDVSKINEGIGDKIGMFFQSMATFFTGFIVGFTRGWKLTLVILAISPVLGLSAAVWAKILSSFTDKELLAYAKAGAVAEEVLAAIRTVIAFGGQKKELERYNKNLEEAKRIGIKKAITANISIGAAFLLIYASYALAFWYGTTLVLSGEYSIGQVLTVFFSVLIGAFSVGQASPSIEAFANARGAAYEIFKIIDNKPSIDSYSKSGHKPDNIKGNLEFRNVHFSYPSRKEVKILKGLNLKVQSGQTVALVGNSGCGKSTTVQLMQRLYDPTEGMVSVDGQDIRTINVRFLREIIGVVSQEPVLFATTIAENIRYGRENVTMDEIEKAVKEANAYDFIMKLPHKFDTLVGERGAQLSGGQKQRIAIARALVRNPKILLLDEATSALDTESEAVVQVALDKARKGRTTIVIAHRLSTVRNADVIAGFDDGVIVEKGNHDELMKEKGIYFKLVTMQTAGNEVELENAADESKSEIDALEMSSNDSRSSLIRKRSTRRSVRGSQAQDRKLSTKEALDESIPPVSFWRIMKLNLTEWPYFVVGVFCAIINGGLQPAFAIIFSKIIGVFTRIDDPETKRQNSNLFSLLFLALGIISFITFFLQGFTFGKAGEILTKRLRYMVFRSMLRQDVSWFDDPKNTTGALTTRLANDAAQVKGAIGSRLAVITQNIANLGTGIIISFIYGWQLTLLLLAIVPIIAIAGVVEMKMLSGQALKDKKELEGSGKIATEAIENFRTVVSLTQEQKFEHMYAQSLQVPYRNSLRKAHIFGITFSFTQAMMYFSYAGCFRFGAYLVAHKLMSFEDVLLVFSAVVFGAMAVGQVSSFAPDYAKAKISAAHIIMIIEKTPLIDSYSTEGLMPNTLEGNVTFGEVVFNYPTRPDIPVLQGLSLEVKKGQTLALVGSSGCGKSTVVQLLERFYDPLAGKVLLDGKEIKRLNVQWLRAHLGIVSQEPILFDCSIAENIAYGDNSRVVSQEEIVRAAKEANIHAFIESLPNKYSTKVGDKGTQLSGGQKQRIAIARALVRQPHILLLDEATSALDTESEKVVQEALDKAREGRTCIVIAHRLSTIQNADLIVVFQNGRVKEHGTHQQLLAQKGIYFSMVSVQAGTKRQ
Experimental: Human brain endothelial cells and primary brain endothelial cells were plated onto 48-well plates until 100% confluence was reached, and media were replaced with fresh media containing Rho123 (2.5 μM) with different concentrations of Lexiscan®, NECA, or PSC833. Reaction was halted by adding 250 μl of ice-cold PBS. Plate was washed with 250 μl of ice-cold PBS 3 times and lysed with lysis buffer. Each sample was analyzed using Synergy Fluometer (Biotek), with excitation at 488 nm and emission at 523 nm. Concentration of Rho123 was analyzed using standard curve created by serial dilution of Rho123. Final concentration of Rho123 was normalized using protein concentration of lysate measured using Bradford assay (Bio-Rad). For microscopic analysis of Rho123 uptake, cells were cultured on coverslip and Rho123 was treated with or without Lexiscan® or NECA with DMSO as control. Reaction was terminated by adding ice-cold PBS and washed with ice-cold PBS 3 times. Cells were fixed with PFA and costained with anti-human P-gp. Cells were visualized with a Zeiss fluorescent microscope and captured with axiovision software. FIG. 4G is a schematic illustration of the Rho123 uptake assay.

Q: Which “Interaction between P-gp and MMP9” value (P-gp and MMP9) does the source give for `CNC(=O)c1cnn(-c2nc(N)c3ncn([C@@H]4O[C@H](CO)[C@@H](O)[C@H]4O)c3n2)c1` [Lexiscan®, 1-[6-amino-9-[(2R,3R,4S,5R)-3,4-dihydroxy-5-(hydroxymethyl)oxolan-2-yl]purin-2-yl]-N-methylpyrazole-4-carboxamide] here?
A: induced rapid interaction between P-gp and MMP9

Q: And the “Secreted P-gp released into the media” value (P-gp [1])?
A: An increase in secreted P-gp that was released into the media

Q: What about the “P-gp level in cytoskeletal fraction (CSK buffer)” value (P-gp [1]; up to 60 minutes) of the same compound?
A: P-gp levels increased at from 5 to 15 minutes, returned to baseline by 30 minutes

Q: What about the “P-gp level in whole lysate (RIPA buffer)” value (P-gp [1]; up to 60 minutes) of the same compound?
A: P-gp levels declined compared with vehicle control beginning at 5 minutes and were maintained for up to 60 minutes

Q: And the “Ubiquitinylation of P-gp” value (P-gp [2])?
A: induced increased ubiquitinylation of P-gp compared with vehicle control

Q: What does the source list for `CCNC(=O)[C@H]1O[C@@H](n2cnc3c(N)ncnc32)[C@H](O)[C@@H]1O` [NECA, (2S,3S,4R,5R)-5-(6-aminopurin-9-yl)-N-ethyl-3,4-dihydroxyoxolane-2-carboxamide]?
A: half-life [3]: 5 h; Rho123 uptake / P-gp function (P-gp [4]): showed a trend in P-gp suppression, but it did not reach statistical significance

Source: patent publication US10953015B2, “Use of adenosine receptor signaling to regulate P-gp function” (CORNELL UNIVERSITY, priority 2016, dated 2021)
